Reference: publication PMC4008261, “Rewiring of regenerated axons by combining treadmill training with semaphorin3A inhibition” (Molecular Brain, 2014)

Key:
Test in all cases: Kinase inhibition test
Format in all cases: biochemical
[1] = target: Fes (Homo sapiens, UniProt P07332)
Source text: (§1) Table 2 Pharmacological profile of SM-345431 (part 2) | column: IC50 (μm)

[2] = target: ROCK-I (Homo sapiens, UniProt Q13464)
Source text: as §1

[3] = target: EGFR (Homo sapiens, UniProt P00533)
Source text: as §1

[4] = target: PAK2 (Homo sapiens, UniProt Q13177)
Source text: as §1

[5] = target: CaMKII
Source text: as §1

[6] = target: PKCγ (Homo sapiens, UniProt P05129)
Source text: as §1

[7] = target: EphB4 (Homo sapiens, UniProt P54760)
Source text: as §1

[8] = target: Fyn (Homo sapiens, UniProt P06241)
Source text: as §1

[9] = target: PKBα (Homo sapiens, UniProt P31749)
PKBα, sequence (P31749 whole entry, species assumed): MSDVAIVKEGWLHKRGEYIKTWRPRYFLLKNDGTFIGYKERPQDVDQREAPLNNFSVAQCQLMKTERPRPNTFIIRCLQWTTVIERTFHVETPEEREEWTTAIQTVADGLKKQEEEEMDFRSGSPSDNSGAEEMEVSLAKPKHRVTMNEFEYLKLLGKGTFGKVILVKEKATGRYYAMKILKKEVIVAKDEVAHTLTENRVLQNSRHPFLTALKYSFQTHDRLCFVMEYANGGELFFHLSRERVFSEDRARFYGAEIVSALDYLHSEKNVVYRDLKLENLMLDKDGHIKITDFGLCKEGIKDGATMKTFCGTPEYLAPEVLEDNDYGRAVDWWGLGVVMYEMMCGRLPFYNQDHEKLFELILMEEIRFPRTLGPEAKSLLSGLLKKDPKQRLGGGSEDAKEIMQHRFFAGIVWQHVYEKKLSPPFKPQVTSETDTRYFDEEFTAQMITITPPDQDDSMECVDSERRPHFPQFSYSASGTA
Source text: as §1

[10] = target: JAK3 (Homo sapiens, UniProt P52333)
Source text: as §1

[11] = target: PI 3-Kγ (Homo sapiens, UniProt P48736)
Source text: as §1

[12] = target: GSK3α (Homo sapiens, UniProt P49840)
Source text: as §1

[13] = target: Flt3 (Homo sapiens, UniProt P36888)
Source text: as §1

[14] = target: MEK1 (Homo sapiens, UniProt Q02750)
Source text: as §1

[15] = target: TrkA (Homo sapiens, UniProt P04629)
TrkA, sequence (P04629 33-796, species assumed): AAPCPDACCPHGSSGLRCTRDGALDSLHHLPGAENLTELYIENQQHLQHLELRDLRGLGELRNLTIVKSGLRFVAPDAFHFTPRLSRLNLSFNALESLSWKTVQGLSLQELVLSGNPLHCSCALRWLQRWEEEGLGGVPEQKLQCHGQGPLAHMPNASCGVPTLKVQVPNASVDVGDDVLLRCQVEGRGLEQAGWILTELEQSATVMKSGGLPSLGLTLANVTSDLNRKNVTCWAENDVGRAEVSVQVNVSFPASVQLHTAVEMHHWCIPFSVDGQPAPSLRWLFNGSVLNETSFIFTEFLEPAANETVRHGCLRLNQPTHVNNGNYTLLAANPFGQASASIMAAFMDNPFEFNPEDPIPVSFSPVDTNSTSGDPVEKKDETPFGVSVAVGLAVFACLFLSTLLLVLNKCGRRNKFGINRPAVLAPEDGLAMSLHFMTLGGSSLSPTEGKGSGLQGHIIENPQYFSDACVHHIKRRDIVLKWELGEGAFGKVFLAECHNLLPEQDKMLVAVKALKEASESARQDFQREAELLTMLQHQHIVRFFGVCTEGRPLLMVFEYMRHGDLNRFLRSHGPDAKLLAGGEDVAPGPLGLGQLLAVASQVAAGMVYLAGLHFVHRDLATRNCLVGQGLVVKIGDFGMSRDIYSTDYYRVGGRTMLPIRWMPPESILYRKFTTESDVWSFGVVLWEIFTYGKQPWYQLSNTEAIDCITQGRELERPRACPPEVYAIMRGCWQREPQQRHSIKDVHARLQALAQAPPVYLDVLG
Source text: as §1

[16] = target: CDK5/p35 (Homo sapiens, UniProt Q00535)
CDK5/p35, sequence (Q00535 whole entry, species assumed): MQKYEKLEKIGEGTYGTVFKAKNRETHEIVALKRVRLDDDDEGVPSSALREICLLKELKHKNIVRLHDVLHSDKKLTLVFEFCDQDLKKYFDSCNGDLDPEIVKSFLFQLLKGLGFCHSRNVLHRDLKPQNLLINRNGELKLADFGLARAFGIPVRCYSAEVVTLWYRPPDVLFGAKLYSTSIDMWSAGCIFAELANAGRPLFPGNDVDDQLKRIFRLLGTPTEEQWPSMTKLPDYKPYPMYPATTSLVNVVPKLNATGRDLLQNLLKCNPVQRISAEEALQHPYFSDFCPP
CDK5/p35, sequence (Q15078 whole entry partner, species assumed): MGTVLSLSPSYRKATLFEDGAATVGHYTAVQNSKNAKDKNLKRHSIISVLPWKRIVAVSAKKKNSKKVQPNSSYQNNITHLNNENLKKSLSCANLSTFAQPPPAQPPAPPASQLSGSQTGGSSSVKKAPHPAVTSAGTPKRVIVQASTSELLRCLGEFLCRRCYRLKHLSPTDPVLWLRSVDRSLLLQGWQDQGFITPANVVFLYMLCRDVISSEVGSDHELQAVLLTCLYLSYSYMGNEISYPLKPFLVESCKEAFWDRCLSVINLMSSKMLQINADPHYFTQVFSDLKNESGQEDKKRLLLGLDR
Source text: as §1

[17] = target: MAPK2 (Homo sapiens, UniProt P28482)
Source text: as §1

[18] = target: PAK4 (Homo sapiens, UniProt O96013)
Source text: as §1

[19] = target: FGFR1 (Homo sapiens, UniProt P11362)
Source text: as §1

[20] = target: EphB2 (Homo sapiens, UniProt P29323)
EphB2, sequence (P29323 19-1055, species assumed): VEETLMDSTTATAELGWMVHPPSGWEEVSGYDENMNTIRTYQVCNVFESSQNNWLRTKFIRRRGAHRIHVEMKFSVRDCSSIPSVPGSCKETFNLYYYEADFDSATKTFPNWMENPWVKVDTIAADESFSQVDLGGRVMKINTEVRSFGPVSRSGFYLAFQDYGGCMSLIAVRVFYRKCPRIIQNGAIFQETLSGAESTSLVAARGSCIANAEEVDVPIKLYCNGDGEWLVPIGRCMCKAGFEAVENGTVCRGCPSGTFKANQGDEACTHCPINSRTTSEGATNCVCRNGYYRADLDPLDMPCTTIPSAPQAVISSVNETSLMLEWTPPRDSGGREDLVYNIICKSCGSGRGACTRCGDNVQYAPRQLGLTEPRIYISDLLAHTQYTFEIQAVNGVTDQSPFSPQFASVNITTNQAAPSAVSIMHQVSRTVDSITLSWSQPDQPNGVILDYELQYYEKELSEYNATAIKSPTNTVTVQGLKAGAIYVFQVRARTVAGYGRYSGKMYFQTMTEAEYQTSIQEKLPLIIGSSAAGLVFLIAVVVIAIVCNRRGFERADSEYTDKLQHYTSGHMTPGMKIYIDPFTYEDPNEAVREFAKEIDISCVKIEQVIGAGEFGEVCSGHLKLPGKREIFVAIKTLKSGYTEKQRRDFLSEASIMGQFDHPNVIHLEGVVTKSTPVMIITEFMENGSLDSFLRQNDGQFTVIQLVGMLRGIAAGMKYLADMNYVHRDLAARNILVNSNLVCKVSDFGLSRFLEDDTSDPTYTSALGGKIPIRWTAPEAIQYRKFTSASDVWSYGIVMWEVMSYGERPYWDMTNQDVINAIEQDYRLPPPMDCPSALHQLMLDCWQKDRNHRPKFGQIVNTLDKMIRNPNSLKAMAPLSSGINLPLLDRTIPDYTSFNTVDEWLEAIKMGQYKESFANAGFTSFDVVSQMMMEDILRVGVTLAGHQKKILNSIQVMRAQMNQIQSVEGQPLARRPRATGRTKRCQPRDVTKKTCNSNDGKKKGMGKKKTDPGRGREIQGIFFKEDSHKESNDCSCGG
Source text: as §1

[21] = target: SAPK2a (Homo sapiens, UniProt Q16539)
SAPK2a, sequence (Q16539 whole entry, species assumed): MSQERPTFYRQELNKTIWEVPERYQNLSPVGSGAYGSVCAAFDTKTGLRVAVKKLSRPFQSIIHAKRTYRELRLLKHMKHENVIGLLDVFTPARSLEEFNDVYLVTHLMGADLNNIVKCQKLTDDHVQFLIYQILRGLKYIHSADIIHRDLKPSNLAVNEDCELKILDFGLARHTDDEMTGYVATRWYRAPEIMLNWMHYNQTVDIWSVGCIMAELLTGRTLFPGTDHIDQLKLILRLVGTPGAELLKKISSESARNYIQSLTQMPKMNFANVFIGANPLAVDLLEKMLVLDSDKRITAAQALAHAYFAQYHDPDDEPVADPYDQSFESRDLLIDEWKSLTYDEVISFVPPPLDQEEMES
Source text: as §1

[22] = target: MEK4 (Homo sapiens, UniProt P45985)
MEK4, sequence (P45985 whole entry, species assumed): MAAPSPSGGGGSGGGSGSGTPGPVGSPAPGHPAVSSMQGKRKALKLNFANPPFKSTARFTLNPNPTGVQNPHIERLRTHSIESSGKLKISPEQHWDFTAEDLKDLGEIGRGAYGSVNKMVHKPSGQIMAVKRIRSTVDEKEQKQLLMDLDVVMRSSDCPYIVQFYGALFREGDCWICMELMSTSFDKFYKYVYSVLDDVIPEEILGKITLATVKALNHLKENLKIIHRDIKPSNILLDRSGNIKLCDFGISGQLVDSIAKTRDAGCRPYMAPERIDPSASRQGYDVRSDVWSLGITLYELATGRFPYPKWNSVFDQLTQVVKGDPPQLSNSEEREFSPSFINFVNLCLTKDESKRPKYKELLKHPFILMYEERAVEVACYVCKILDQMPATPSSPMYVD
Source text: as §1

[23] = target: EphA4 (Homo sapiens, UniProt P54764)
Source text: as §1

[24] = target: KDR (Homo sapiens, UniProt P35968)
Source text: as §1

[25] = target: MKK6 (Homo sapiens, UniProt P52564)
Source text: as §1

[26] = target: FGFR3 (Homo sapiens, UniProt P22607)
Source text: as §1

[27] = target: TrkB (Homo sapiens, UniProt Q16620)
Source text: as §1

[28] = target: FGFR4 (Homo sapiens, UniProt P22455)
Source text: as §1

[29] = target: Flt1 (Homo sapiens, UniProt P17948)
Source text: as §1

[30] = target: EphA2 (Homo sapiens, UniProt P29317)
Source text: as §1

EGFR, sequence (P00533 25-1210, species assumed): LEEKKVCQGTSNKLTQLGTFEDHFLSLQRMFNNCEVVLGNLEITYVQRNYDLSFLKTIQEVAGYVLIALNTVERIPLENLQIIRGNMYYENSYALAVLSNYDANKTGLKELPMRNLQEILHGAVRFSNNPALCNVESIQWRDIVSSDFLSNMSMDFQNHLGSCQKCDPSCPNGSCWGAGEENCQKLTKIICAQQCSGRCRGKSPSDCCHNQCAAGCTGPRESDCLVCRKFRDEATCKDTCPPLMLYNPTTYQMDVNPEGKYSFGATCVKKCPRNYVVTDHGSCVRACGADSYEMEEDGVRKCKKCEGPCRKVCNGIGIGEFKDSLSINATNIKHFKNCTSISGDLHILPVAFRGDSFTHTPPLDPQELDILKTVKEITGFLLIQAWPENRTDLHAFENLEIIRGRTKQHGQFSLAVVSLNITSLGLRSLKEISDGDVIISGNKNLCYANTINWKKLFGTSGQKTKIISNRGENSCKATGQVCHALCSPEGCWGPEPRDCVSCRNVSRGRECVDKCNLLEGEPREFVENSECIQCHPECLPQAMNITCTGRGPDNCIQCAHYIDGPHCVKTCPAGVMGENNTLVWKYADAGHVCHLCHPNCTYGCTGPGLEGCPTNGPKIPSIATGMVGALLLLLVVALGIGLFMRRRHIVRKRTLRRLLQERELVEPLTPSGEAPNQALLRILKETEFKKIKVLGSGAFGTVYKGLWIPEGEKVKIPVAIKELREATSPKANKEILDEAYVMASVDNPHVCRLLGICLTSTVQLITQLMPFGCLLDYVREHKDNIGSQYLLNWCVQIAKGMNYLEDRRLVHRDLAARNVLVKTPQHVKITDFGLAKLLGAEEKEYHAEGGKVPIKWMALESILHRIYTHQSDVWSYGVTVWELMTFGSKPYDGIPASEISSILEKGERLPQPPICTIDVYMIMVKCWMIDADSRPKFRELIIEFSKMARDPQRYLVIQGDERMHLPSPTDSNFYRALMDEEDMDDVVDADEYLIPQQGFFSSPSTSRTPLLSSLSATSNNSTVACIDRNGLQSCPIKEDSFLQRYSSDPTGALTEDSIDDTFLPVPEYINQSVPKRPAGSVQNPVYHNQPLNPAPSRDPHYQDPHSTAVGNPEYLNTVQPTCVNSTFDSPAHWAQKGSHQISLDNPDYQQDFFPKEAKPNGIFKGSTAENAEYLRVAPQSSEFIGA

With CC(=O)c1cc2c(=O)c3c(C(=O)O)c(O)c(O)cc3oc2c(C(C)=O)c1-c1coc2cc(O)c(O)c(C(=O)O)c2c1=O [SM-345431, Vinaxanthone] the IC50 [1] was > 10 µM, the IC50 [2] was > 10 µM and the IC50 [3] was 0.9 µM. For the same molecule, the IC50 [4] was > 10 µM, the IC50 [5] was > 10 µM and the IC50 [6] was > 10 µM. For the same molecule, the IC50 [7] was > 10 µM, the IC50 [8] was > 10 µM and the IC50 [9] was > 10 µM. The IC50 [10] was > 10 µM, the IC50 [11] was > 10 µM and the IC50 [12] was 2.46 µM. For the same molecule, the IC50 [13] was > 10 µM, the IC50 [14] was > 10 µM and the IC50 [15] was > 10 µM. For the same molecule, the IC50 [16] was > 10 µM, the IC50 [17] was > 10 µM and the IC50 [18] was > 10 µM. For the same molecule, the IC50 [19] was > 10 µM, the IC50 [20] was 0.68 µM and the IC50 [21] was > 10 µM. For the same molecule, the IC50 [22] was > 10 µM, the IC50 [23] was 0.8 µM and the IC50 [24] was > 10 µM. The IC50 [25] was > 10 µM, the IC50 [26] was 0.77 µM and the IC50 [27] was > 10 µM. For the same molecule, the IC50 [28] was 0.64 µM, the IC50 [29] was > 10 µM and the IC50 [30] was > 10 µM.
